This test concerns the target human D-amino acid oxidase (hDAAO) (Homo sapiens (Human), UniProt P14920). Put plainly: In vitro human D-amino acid oxidase (hDAAO) activity, D-Serine/Amplex Red fluorescence. It counts as biochemical. Particulars: D-Serine substrate, 20 min. As to the method:
The hDAAO inhibitory activities were measured by using D-Serine as a substrate to produce H2O2. The produced H2O2 would be oxidized by peroxidase, and the produced free radicals would further react with Amplex Red reagent to emit fluorescence. The intensity of fluorescence at 590 nm would be measured to represent the activity of hDAAO. All compounds were dissolved in DMSO. Each compound was diluted with DMSO in 3-fold serial dilution to create a dose response curve. Each sample was added in triplicate, 1 µL/well, into 96-well black plates. Positive control wells were added with 1 μL of DMSO. Then 49 μL of assay buffer (100 mM Tris-HCl, pH 8.5) containing 1.2 ng/mL hDAAO, 900 nM FAD, 0.2 units/mL HRP, and 100 μM Amplex Red was added to each well of the plate using a multichannel pipette. Next, 50 μL of 100 mM D-Serine in assay buffer was added. The reaction plates were then incubated in the dark at room temperature. The fluorescence readout was detected at 0 and 20 mins by Molecular Device Gemini EM fluorescence reader using the following settings: excitation filter 530 nm, and emission filter 590 nm. The percentage of inhibition values for each well was calculated with the following equation: The percentage of inhibition=(fluorescence sample, 20 min−fluorescence sample, 0 min)/(fluorescence DMSO, 20 min−fluorescence DMSO, 0 min)×100%
The nonlinear curve fitting model in GraphPad Prism was used to calculate IC50 value for each compound.

Each structure is given as a SMILES string. Where a name gives a salt, the structure may show the parent alone.

Sequence of human D-amino acid oxidase (hDAAO) (P14920 whole entry): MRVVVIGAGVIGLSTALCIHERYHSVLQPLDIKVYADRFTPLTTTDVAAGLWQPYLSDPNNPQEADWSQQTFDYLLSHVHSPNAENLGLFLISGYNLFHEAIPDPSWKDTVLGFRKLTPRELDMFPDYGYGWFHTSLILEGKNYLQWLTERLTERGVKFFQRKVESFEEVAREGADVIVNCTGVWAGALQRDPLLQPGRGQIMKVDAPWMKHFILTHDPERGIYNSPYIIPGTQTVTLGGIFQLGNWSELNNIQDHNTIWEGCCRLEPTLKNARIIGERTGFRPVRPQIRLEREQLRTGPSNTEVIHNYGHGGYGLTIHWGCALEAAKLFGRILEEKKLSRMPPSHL

Broadly, the IC50 is the midpoint of a concentration-inhibition curve. A higher IC50 goes with lower potency. The compound `O=C(Oc1cccnc1)c1cc(O)c(O)c(OC(=O)c2cc(O)c(O)c(OC(=O)c3cc(O)c(O)c(OC(=O)c4cc(O)c(O)c(OC(=O)c5cc(O)c(O)c(O)c5)c4)c3)c2)c1` [Compound 94, 5-((5-((5-((2,3-dihydroxy-5-((pyridin-3-yloxy)carbonyl)phenoxy)carbonyl)-2,3-dihydroxyphenoxy)carbonyl)-2,3-dihydroxyphenoxy)carbonyl)-2,3-dihydroxyphenyl 3,4,5-trihydroxybenzoate hydrochloride salt] displayed a half-inhibitory concentration (IC50) of 42 nM.
Turning to `O=C(Oc1cc(C(=O)Oc2cc(C(=O)Oc3cc(C(=O)Oc4cc(C(=O)OC5CCCCC5)cc(O)c4O)cc(O)c3O)cc(O)c2O)cc(O)c1O)c1cc(O)c(O)c(O)c1` [Compound 96, Cyclohexyl 3-((3-((3-((3,4-dihydroxy-5-((3,4,5-trihydroxybenzoyl)oxy)benzoyl)oxy)-4,5-dihydroxybenzoyl)oxy)-4,5-dihydroxybenzoyl)oxy)-4,5-dihydroxybenzoate], half-maximal inhibition (IC50) required 26 nM.
To `O=C(Oc1cc(C(=O)Oc2cc(C(=O)Oc3cc(C(=O)Oc4cc(C(=O)OC5CC5)cc(O)c4O)cc(O)c3O)cc(O)c2O)cc(O)c1O)c1cc(O)c(O)c(O)c1` [Compound 98, 5-((5-((5-((5-(cyclopropoxycarbonyl)-2,3-dihydroxyphenoxy)carbonyl)-2,3-dihydroxyphenoxy)carbonyl)-2,3-dihydroxyphenoxy)carbonyl)-2,3-dihydroxyphenyl 3,4,5-trihydroxybenzoate] belongs 33 nM.
To `O=C(Oc1cc(C(=O)Oc2cc(C(=O)Oc3cc(C(=O)Oc4cc(C(=O)OC5CCCCCC5)cc(O)c4O)cc(O)c3O)cc(O)c2O)cc(O)c1O)c1cc(O)c(O)c(O)c1` [Compound 100, cycloheptyl 3-((3-((3-((3,4-dihydroxy-5-((3,4,5-trihydroxybenzoyl)oxy)benzoyl)oxy)-4,5-dihydroxybenzoyl)oxy)-4,5-dihydroxybenzoyl)oxy)-4,5-dihydroxybenzoate] belongs 19 nM; to `O=C(Oc1cc(OC(=O)c2cc(O)c(O)c(OC(=O)c3cc(O)c(O)c(OC(=O)c4cc(O)c(O)c(OC(=O)c5cc(O)c(O)c(OC(=O)c6cc(O)c(O)c(O)c6)c5)c4)c3)c2)cc(OC(=O)c2cc(O)c(O)c(OC(=O)c3cc(O)c(O)c(OC(=O)c4cc(O)c(O)c(OC(=O)c5cc(O)c(O)c(OC(=O)c6cc(O)c(O)c(O)c6)c5)c4)c3)c2)c1)c1ccccc1` [Compound 103, 5-(benzoyloxy)-1,3-phenylene bis(3-((3-((3-((3,4-dihydroxy-5-((3,4,5-trihydroxybenzoyl)oxy)benzoyl)oxy)-4,5-dihydroxybenzoyl)oxy)-4,5-dihydroxybenzoyl)oxy)-4,5-dihydroxybenzoate)], 7 nM.
With `O=C(Oc1cc(OC(=O)c2cc(O)c(O)c(OC(=O)c3cc(O)c(O)c(OC(=O)c4cc(O)c(O)c(OC(=O)c5cc(O)c(O)c(OC(=O)c6cc(O)c(O)c(O)c6)c5)c4)c3)c2)cc(OC(=O)c2cc(CCc3ccc(C(F)(F)F)cc3)n[nH]2)c1)c1cc(O)c(O)c(OC(=O)c2cc(O)c(O)c(OC(=O)c3cc(O)c(O)c(OC(=O)c4cc(O)c(O)c(OC(=O)c5cc(O)c(O)c(O)c5)c4)c3)c2)c1` [Compound 107, 5-((3-(4-(trifluoromethyl)phenethyl)-1H-pyrazole-5-carbonyl)oxy)-1,3-phenylene bis(3-((3-((3-((3,4-dihydroxy-5-((3,4,5-trihydroxybenzoyl)oxy)benzoyl)oxy)-4,5-dihydroxybenzoyl)oxy)-4,5-dihydroxybenzoyl)oxy)-4,5-dihydroxybenzoate)], the IC50 was 7 nM.
To `O=C(Oc1cc(C(=O)O[C@H]2OC[C@@H](OC(=O)c3cc(O)c(O)c(OC(=O)c4cc(O)c(O)c(O)c4)c3)[C@H](OC(=O)c3cc(O)c(O)c(OC(=O)c4cc(O)c(O)c(O)c4)c3)[C@H]2OC(=O)c2cc(O)c(O)c(OC(=O)c3cc(O)c(O)c(O)c3)c2)cc(O)c1O)c1cc(O)c(O)c(O)c1` [Compound 117, (2R,3R,4S,5R)-tetrahydro-2H-pyran-2,3,4,5-tetrayl tetrakis(3,4-dihydroxy-5-((3,4,5-trihydroxybenzoyl)oxy)benzoate)] belongs 9 nM; to `O=C(Oc1cc(C(=O)Oc2cc(C(=O)O[C@H]3OC[C@@H](OC(=O)c4cc(O)c(O)c(OC(=O)c5cc(O)c(O)c(OC(=O)c6cc(O)c(O)c(O)c6)c5)c4)[C@H](OC(=O)c4cc(O)c(O)c(OC(=O)c5cc(O)c(O)c(OC(=O)c6cc(O)c(O)c(O)c6)c5)c4)[C@H]3OC(=O)c3cc(O)c(O)c(OC(=O)c4cc(O)c(O)c(OC(=O)c5cc(O)c(O)c(O)c5)c4)c3)cc(O)c2O)cc(O)c1O)c1cc(O)c(O)c(O)c1` [Compound 119, (2R,3R,4S,5R)-tetrahydro-2H-pyran-2,3,4,5-tetrayl tetrakis(3-((3,4-dihydroxy-5-((3,4,5-trihydroxybenzoyl)oxy)benzoyl)oxy)-4,5-dihydroxybenzoate)], 5 nM; to `O=C(Oc1cc(C(=O)Oc2cc(C(=O)Oc3cc(C(=O)Oc4cc(C(=O)O[C@H]5OC[C@@H](OC(=O)c6cc(O)c(O)c(OC(=O)c7cc(O)c(O)c(OC(=O)c8cc(O)c(O)c(OC(=O)c9cc(O)c(O)c(OC(=O)c%10cc(O)c(O)c(O)c%10)c9)c8)c7)c6)[C@H](OC(=O)c6cc(O)c(O)c(OC(=O)c7cc(O)c(O)c(OC(=O)c8cc(O)c(O)c(OC(=O)c9cc(O)c(O)c(OC(=O)c%10cc(O)c(O)c(O)c%10)c9)c8)c7)c6)[C@H]5OC(=O)c5cc(O)c(O)c(OC(=O)c6cc(O)c(O)c(OC(=O)c7cc(O)c(O)c(OC(=O)c8cc(O)c(O)c(OC(=O)c9cc(O)c(O)c(O)c9)c8)c7)c6)c5)cc(O)c4O)cc(O)c3O)cc(O)c2O)cc(O)c1O)c1cc(O)c(O)c(O)c1` [Compound 123, (2R,3R,4S,5R)-tetrahydro-2H-pyran-2,3,4,5-tetrayl tetrakis(3-((3-((3-((3,4-dihydroxy-5-((3,4,5-trihydroxybenzoyl)oxy)benzoyl)oxy)-4,5-dihydroxybenzoyl)oxy)-4,5-dihydroxybenzoyl)oxy)-4,5-dihydroxybenzoate)], 2.4 nM.
To `O=C(Oc1cc(C(=O)Oc2cc(C(=O)O[C@@H]3OC[C@@H](OC(=O)c4cc(O)c(O)c(OC(=O)c5cc(O)c(O)c(OC(=O)c6cc(O)c(O)c(O)c6)c5)c4)[C@H](OC(=O)c4cc(O)c(O)c(OC(=O)c5cc(O)c(O)c(OC(=O)c6cc(O)c(O)c(O)c6)c5)c4)[C@H]3OC(=O)c3cc(O)c(O)c(OC(=O)c4cc(O)c(O)c(OC(=O)c5cc(O)c(O)c(O)c5)c4)c3)cc(O)c2O)cc(O)c1O)c1cc(O)c(O)c(O)c1` [Compound 126, (2S,3R,4S,5R)-tetrahydro-2H-pyran-2,3,4,5-tetrayl tetrakis(3-((3,4-dihydroxy-5-((3,4,5-trihydroxybenzoyl)oxy)benzoyl)oxy)-4,5-dihydroxybenzoate)] belongs 3.6 nM; to `O=C(Oc1cc(C(=O)Oc2cc(C(=O)Oc3cc(C(=O)O[C@@H]4OC[C@@H](OC(=O)c5cc(O)c(O)c(OC(=O)c6cc(O)c(O)c(OC(=O)c7cc(O)c(O)c(OC(=O)c8cc(O)c(O)c(O)c8)c7)c6)c5)[C@H](OC(=O)c5cc(O)c(O)c(OC(=O)c6cc(O)c(O)c(OC(=O)c7cc(O)c(O)c(OC(=O)c8cc(O)c(O)c(O)c8)c7)c6)c5)[C@H]4OC(=O)c4cc(O)c(O)c(OC(=O)c5cc(O)c(O)c(OC(=O)c6cc(O)c(O)c(OC(=O)c7cc(O)c(O)c(O)c7)c6)c5)c4)cc(O)c3O)cc(O)c2O)cc(O)c1O)c1cc(O)c(O)c(O)c1` [Compound 128, (2S,3R,4S,5R)-tetrahydro-2H-pyran-2,3,4,5-tetrayl tetrakis(3-((3-((3,4-dihydroxy-5-((3,4,5-trihydroxybenzoyl)oxy)benzoyl)oxy)-4,5-dihydroxybenzoyl)oxy)-4,5-dihydroxybenzoate)], 3.3 nM; to `O=C(OC[C@H]1O[C@H](OC(=O)c2cc(O)c(O)c(OC(=O)c3cc(O)c(O)c(O)c3)c2)[C@H](OC(=O)c2cc(O)c(O)c(OC(=O)c3cc(O)c(O)c(O)c3)c2)[C@@H]1OC(=O)c1cc(O)c(O)c(OC(=O)c2cc(O)c(O)c(O)c2)c1)c1cc(O)c(O)c(OC(=O)c2cc(O)c(O)c(O)c2)c1` [Compound 134, (2R,3R,4R,5R)-5-(((3,4-dihydroxy-5-((3,4,5-trihydroxybenzoyl)oxy)benzoyl)oxy)methyl)tetrahydrofuran-2,3,4-triyl tris(3,4-dihydroxy-5-((3,4,5-trihydroxybenzoyl)oxy)benzoate)], 8 nM.
To `O=C(OC[C@H]1O[C@H](OC(=O)c2cc(O)c(O)c(OC(=O)c3cc(O)c(O)c(OC(=O)c4cc(O)c(O)c(O)c4)c3)c2)[C@H](OC(=O)c2cc(O)c(O)c(OC(=O)c3cc(O)c(O)c(OC(=O)c4cc(O)c(O)c(O)c4)c3)c2)[C@@H]1OC(=O)c1cc(O)c(O)c(OC(=O)c2cc(O)c(O)c(OC(=O)c3cc(O)c(O)c(O)c3)c2)c1)c1cc(O)c(O)c(OC(=O)c2cc(O)c(O)c(OC(=O)c3cc(O)c(O)c(O)c3)c2)c1` [Compound 136, (2R,3R,4R,5R)-5-(((3-((3,4-dihydroxy-5-((3,4,5-trihydroxybenzoyl)oxy)benzoyl)oxy)-4,5-dihydroxybenzoyl)oxy)methyl)tetrahydrofuran-2,3,4-triyl tris(3-((3,4-dihydroxy-5-((3,4,5-trihydroxybenzoyl)oxy)benzoyl)oxy)-4,5-dihydroxybenzoate)] belongs 6 nM.

The record behind these values is patent publication US11793823B2, “Compounds and pharmaceutical uses thereof” (SyneuRx International (Taiwan) Corp., priority 2020, dated 2023).
